Activity calls are given as the source filed them. The rule behind the calls is not given here.
Legend:
HepG2 = test: Antiproliferative activity against human HepG2 cells after 48 hrs by MTT assay; format: functional, cell-based; conditions: HepG2, 48 h
WI-38 = test: Antiproliferative activity against human WI38 cells after 48 hrs by MTT assay; format: cell-based; conditions: WI-38, 48 h
HeLa = test: cells; conditions: Homo sapiens, 48 h
T-24 = test: Antiproliferative activity against human T24 cells after 48 hrs by MTT assay; format: functional, cell-based; conditions: T-24, 48 h
MGC-803 [1] = test: Antiproliferative activity against human MGC803 cells after 48 hrs by MTT assay; format: functional, cell-based; conditions: MGC-803, 48 h
A549 = test: cells; conditions: Homo sapiens, A549, 48 h
[2] = target: T1, DNA topoisomerase 1 (Homo sapiens) (UniProt P11387); test: Inhibition of topoisomerase 1 (unknown origin) using pBR322 DNA as substrate assessed as reduction in pBR322 DNA unwinding at 50 uM after 30 mins by ethidium bromide staining-based agarose gel electrophoresis analysis
T1 sequence (whole entry): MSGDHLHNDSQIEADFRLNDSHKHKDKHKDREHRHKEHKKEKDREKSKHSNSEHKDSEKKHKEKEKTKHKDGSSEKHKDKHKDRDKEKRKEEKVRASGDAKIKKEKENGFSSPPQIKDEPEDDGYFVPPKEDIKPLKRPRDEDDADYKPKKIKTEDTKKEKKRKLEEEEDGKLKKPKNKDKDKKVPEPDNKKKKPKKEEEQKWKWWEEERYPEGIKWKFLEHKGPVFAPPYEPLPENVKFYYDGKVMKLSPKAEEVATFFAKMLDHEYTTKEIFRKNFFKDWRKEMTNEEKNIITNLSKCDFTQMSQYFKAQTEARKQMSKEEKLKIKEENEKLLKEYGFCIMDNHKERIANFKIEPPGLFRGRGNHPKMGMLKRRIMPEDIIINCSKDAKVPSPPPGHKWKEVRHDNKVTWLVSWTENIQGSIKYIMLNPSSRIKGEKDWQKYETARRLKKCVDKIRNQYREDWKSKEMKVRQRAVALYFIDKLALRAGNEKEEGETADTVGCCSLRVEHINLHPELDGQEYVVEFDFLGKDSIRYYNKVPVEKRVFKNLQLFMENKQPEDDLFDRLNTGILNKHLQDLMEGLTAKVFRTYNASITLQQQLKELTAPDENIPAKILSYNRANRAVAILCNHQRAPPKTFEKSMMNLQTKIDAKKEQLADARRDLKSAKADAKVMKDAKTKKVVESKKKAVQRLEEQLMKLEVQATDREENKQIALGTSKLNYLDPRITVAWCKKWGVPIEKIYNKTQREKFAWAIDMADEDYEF

[3] = target: T1, DNA topoisomerase 1 (Homo sapiens); test: Inhibition of topoisomerase 1 (unknown origin) at 50 uM using pBR322 DNA as substrate preincubated for 30 mins followed by substrate addition and measured after 30 mins by ethidium bromide staining-based agarose gel electrophoresis analysis
DNA = test: Binding affinity to Escherichia coli supercoiled pBR322 DNA assessed as DNA intercalation at 50 uM after 1 hr by ethidium bromide staining-based agarose gel electrophoresis analysis; format: nucleic-acid assay
MGC-803 [4] = test: Antitumor activity against human MGC803 cells xenografted in BALB/C mouse assessed as tumor growth inhibition at 6 mg/kg, ip dosed every other day for 16 days relative to control; format: functional; conditions: MGC-803, ip, read-out: TGI

Compound	IC50 (HepG2) [µM]	IC50 (HeLa) [µM]	IC50 (MGC-803 [1]) [µM]	IC50 (A549) [µM]	inhibition [2]	inhibition [3]	Activity (DNA)	IC50 (WI-38) [µM]	IC50 (T-24) [µM]	inhibition in vivo at 6 mg/kg (MGC-803 [4]) [%]
c1ccc2nc(-c3nc4ccccc4o3)c(NCCCN3CCOCC3)nc2c1	> 100	> 100	> 100	> 100				> 100	> 100	
CC[C@@]1(O)C(=O)OCc2c1cc1n(c2=O)Cc2cc3ccccc3nc2-1 [CAMPTOTHECIN]	4.79	6.51	2.96	4.43				8.37	6.8	51.5
c1ccc2nc(-c3nc4ccccc4[nH]3)c(NCCCN3CCOCC3)nc2c1	> 100	> 100	> 100	> 100				> 100	> 100	
c1ccc2nc(-c3nc4ccccc4[nH]3)c(NCCN3CCOCC3)nc2c1	> 100	> 100	> 100	> 100				> 100	> 100	
c1ccc2nc(-c3nc4ccccc4s3)c(NCCN3CCOCC3)nc2c1	> 100	> 100	> 100	> 100				> 100	> 100	

More lines, main results first:

IC50 (HepG2) [µM]	IC50 (HeLa) [µM]	IC50 (MGC-803 [1]) [µM]	IC50 (A549) [µM]	inhibition [2]	inhibition [3]	Activity (DNA)	Compound	IC50 (WI-38) [µM]	IC50 (T-24) [µM]	inhibition in vivo at 6 mg/kg (MGC-803 [4]) [%]
> 100	> 100	> 100	> 100				c1ccc2nc(-c3nc4ccccc4o3)c(NCCN3CCOCC3)nc2c1	> 100	> 100	
12.7	10.8	11.5	11.3	inactive	inactive	inactive	CCN(CC)CCCNc1nc2ccccc2nc1-c1nc2c(ccc3ccccc32)o1	14.7	8	
> 100	> 100	> 100	> 100				c1ccc2nc(-c3nc4ccccc4s3)c(NCCCN3CCOCC3)nc2c1	> 100	> 100	
10.8	10.5	11.3	4.66	inactive	inactive	inactive	CN(C)CCCNc1nc2ccccc2nc1-c1nc2c(ccc3ccccc32)o1	16.4	5.75	

Reference: ChEMBL document CHEMBL4316587, “Identification of 3-(benzazol-2-yl)quinoxaline derivatives as potent anticancer compounds: Privileged structure-based design, synthesis, and bioactive evaluation in vitro and in vivo” (Eur J Med Chem, 2019)
